The target in test [1] is T1, Human CD73 (amino acid residues 27-549) (Homo sapiens, UniProt P21589).
T1 construct: Human CD73 (amino acid residues 27-549); His tag (N); made in house; host or cells: E. coli
T1 sequence (P21589 27-549): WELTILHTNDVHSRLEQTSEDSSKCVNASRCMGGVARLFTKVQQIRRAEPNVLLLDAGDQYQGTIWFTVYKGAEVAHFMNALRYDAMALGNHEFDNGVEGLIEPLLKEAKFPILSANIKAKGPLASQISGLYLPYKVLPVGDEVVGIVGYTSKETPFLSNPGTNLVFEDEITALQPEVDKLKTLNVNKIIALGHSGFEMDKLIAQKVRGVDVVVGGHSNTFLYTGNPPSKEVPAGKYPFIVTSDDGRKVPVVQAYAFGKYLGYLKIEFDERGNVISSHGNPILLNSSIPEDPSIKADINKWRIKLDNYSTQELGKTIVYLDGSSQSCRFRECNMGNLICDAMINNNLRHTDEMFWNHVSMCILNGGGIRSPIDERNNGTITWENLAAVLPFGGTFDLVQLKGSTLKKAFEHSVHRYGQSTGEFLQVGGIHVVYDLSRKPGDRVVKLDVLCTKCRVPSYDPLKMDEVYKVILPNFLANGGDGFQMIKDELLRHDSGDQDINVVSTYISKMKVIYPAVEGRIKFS
The experiment in a line: CD73 enzymatic assay (luciferase-based indirect assay, CellTiter-Glo). The settings on record: 0.4 nM CD73, 150 μM AMP, 1 hour at room temperature. Format: biochemical. The essentials: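 Luciferase-coupled readout: AMP left after CD73 turnover suppresses CellTiter-Glo signal (1 μM ATP final, 30 min RT). Reaction beforehand: 150 μM AMP, 0.4 nM E. coli-made His-tagged CD73 residues 27-549, test compound, HEPES pH 7.4 with Tween-20, 1 h RT. % inhibition fitted nonlinearly for IC50.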
In general terms: Cellular ATP, detected with luciferase, serves as a proxy for viable cell number.

For another test, the target named is T2, human CD73 (Homo sapiens, UniProt P21589).
T2 construct: expressed in transfected cells
T2 sequence (P21589 27-549): T1 sequence (P21589 27-549)
The experiment in a line: Inhibitor activity against CD73 in cell based assay (CD73 expressing CHO-K1 cells). The settings on record: CHO-K1 cells expressing human CD73, 150 μM AMP, 4 hours of incubation; read-out: CHO-K1 CELL_VARIANT: CD73 IC50. The procedure, abridged:
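AMP (150 μM) was added alongside 8 titrated compound doses (maximum 10 μM, 1:3 steps) to CHO-K1 cells stably expressing human CD73. After 4 h, supernatant AMP was measured indirectly with CellTiter-Glo 2.0 plus 1 μM ATP (30 min, RT). % inhibition versus high and low controls was fitted nonlinearly for IC50.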

The values below come from patent US12202818B2, “Compounds and methods for CD73 modulation and indications therefor” (Opna Bio SA, priority 2020, dated 2025).

As usually defined, the IC50 is the concentration that gives 50% inhibition.

For `O=C(C1CC1)N1CCC(c2ccnc(O[C@@H]3CCN(c4cn[nH]c(=O)c4Cl)C3)c2)CC1` [P-0058, (R)-4-chloro-5-(3-((4-(1-(cyclopropanecarbonyl)piperidin-4-yl)pyridin-2-yl)oxy)pyrrolidin-1-yl)pyridazin-3(2H)-one], the concentration for half-maximal inhibition (IC50) (in test [1]; at human CD73) was 0.001 to 10 µM each time.
Take `NC1CCC(c2ccnc(O[C@@H]3CCN(c4cn[nH]c(=O)c4Cl)C3)c2)CC1` (stereo partly drawn) [P-0059, (R)-5-(3-((4-(4-aminocyclohexyl)pyridin-2-yl)oxy)pyrrolidin-1-yl)-4-chloropyridazin-3(2H)-one]: the IC50 (in test [1]; on human CD73) was 0.001 to 10 µM each time.
Regarding `CC(=O)C1CCC(c2ccnc(O[C@@H]3CCN(c4cn[nH]c(=O)c4Cl)C3)c2)CC1` (stereo partly drawn) [P-0060, (R)-5-(3-((4-(4-acetylcyclohexyl)pyridin-2-yl)oxy)pyrrolidin-1-yl)-4-chloropyridazin-3(2H)-one], the IC50 (in test [1]; on human CD73) was 0.001 to 10 µM each time.
As to `Cc1nn(CC2COC2)c(C)c1-c1cc(O[C@@H]2CCN(c3cn[nH]c(=O)c3Cl)C2)ncn1` [P-0061, (R)-4-chloro-5-(3-((6-(3,5-dimethyl-1-(oxetan-3-ylmethyl)-1H-pyrazol-4-yl)pyrimidin-4-yl)oxy)pyrrolidin-1-yl)pyridazin-3(2H)-one], the IC50 (in test [1]; on human CD73) was 0.001 to 10 µM throughout.
As for `CCn1nc(C)c(-c2ccnc(O[C@@H]3CCN(c4cnn(CCO)c(=O)c4Cl)C3)c2)c1C` [P-0062, (R)-4-chloro-5-(3-((4-(1-ethyl-3,5-dimethyl-1H-pyrazol-4-yl)pyridin-2-yl)oxy)pyrrolidin-1-yl)-2-(2-hydroxyethyl)pyridazin-3(2H)-one], the 50% inhibitory concentration (IC50) (in test [1]; on human CD73) was 0.001 to 10 µM in each case.
`Cc1noc(C)c1-c1ccnc(O[C@@H]2CCN(c3cn[nH]c(=O)c3C#N)C2)c1` [P-0063, (R)-5-(3-((4-(3,5-dimethylisoxazol-4-yl)pyridin-2-yl)oxy)pyrrolidin-1-yl)-3-oxo-2,3-dihydropyridazine-4-carbonitrile]: the IC50 (in test [1]; on human CD73) was 0.001 to 10 µM in each case.
Take `Cc1nn(CC(O)CCCl)c(C)c1-c1ccnc(O[C@@H]2CCN(c3cnn(CCO)c(=O)c3Cl)C2)c1` (stereo partly drawn) [P-0064, 4-chloro-5-((3R)-3-((4-(1-(4-chloro-2-hydroxybutyl)-3,5-dimethyl-1H-pyrazol-4-yl)pyridin-2-yl)oxy)pyrrolidin-1-yl)-2-(2-hydroxyethyl)pyridazin-3(2H)-one]: the 50% inhibitory concentration (IC50) (in test [1]; on human CD73) was 0.001 to 10 µM in each case.
For `Cc1nn(CC2(O)COC2)c(C)c1-c1ccnc(O[C@@H]2CCN(c3cn[nH]c(=O)c3Cl)C2)c1` [P-0065, (R)-4-chloro-5-(3-((4-(1-((3-hydroxyoxetan-3-yl)methyl)-3,5-dimethyl-1H-pyrazol-4-yl)pyridin-2-yl)oxy)pyrrolidin-1-yl)pyridazin-3(2H)-one], the IC50 (in test [1]; on human CD73) was 0.001 to 10 µM throughout.
With `Cc1noc(C)c1-c1ccnc(O[C@@H]2CCN(c3cn[nH]c(=O)c3Br)C2)c1` [P-0066, (R)-4-bromo-5-(3-((4-(3,5-dimethylisoxazol-4-yl)pyridin-2-yl)oxy)pyrrolidin-1-yl)pyridazin-3(2H)-one], the IC50 (in test [1]; on human CD73) was 0.001 to 10 µM in each case.
Regarding `NC1CC=C(c2ccnc(O[C@@H]3CCN(c4cn[nH]c(=O)c4Cl)C3)c2)CC1` (stereo partly drawn) [P-0067, 5-((3R)-3-((4-(4-aminocyclohex-1-en-1-yl)pyridin-2-yl)oxy)pyrrolidin-1-yl)-4-chloropyridazin-3(2H)-one], the 50% inhibitory concentration (IC50) (in test [1]; on human CD73) was 0.001 to 10 µM throughout.
Turning to `CC(=O)C1CC=C(c2ccnc(O[C@@H]3CCN(c4cn[nH]c(=O)c4Cl)C3)c2)CC1` (stereo partly drawn) [P-0068, 5-((3R)-3-((4-(4-acetylcyclohex-1-en-1-yl)pyridin-2-yl)oxy)pyrrolidin-1-yl)-4-chloropyridazin-3(2H)-one], the IC50 (in test [1]; on human CD73) was 0.001 to 10 µM in each case.
